# In US10301292B2, “Bicyclic compound” (Takeda Pharmaceutical Company Limited, priority 2014, dated 2019):
# Key:
# [1] = test system: human renal cancer cell line 786-O; test: Antitumor action on human renal cancer cell line 786-O tumor bearing mouse; format: in vivo; settings: oral, 28 days, 786-O tumor bearing BALB/c nude mouse
# Method: The antitumor action of the compound of the present invention on human renal cancer cell line 786-O tumor bearing mouse was evaluated by the following method.
# Human renal cancer cell line 786-O (purchased from ATCC (American Type Culture Collection)) was transplanted to 6-week-old BALB/c female nude mouse (Shanghai SINO-British SIPPR/BK Lab Animal Ltd) at 3.0×10^6 cells by subcutaneous injection. After transplantation, the engrafted tumor was observed, the tumor diameter was measured on day 10 post-transplantation, and the tumor volume was calculated by the following formula. tumor volume=major axis×minor axis×minor axis×(1/2)
# The mice having engrafted tumor with a volume size up to 150 mm^3 were selected and used for the experiment (8 per group). The test compound was suspended in 0.5% methylcellulose solution, and orally administered for 28 days at the dose and number of administration shown in the following Table. Finally, for the measurement of the drug effect, the tumor volume was calculated from the tumor diameter of the day before the start of the administration and the final day of the administration, and the tumor growth of the test compound administration group compared to that of the control administration group (T/C) was calculated by the following formula. T/C (%)=(tumor volume after completion of administration in test compound administration group−tumor volume before start of administration in test compound administration group)/(tumor volume after completion of administration in control administration group−tumor volume before start of administration in control administration group))×100
# T/C (%) relative to human renal cancer cell line 786-O tumor bearing mouse at each dose and number of administration of the test compound (specifically, compound shown in Example 98) is shown below.
# [2] = test system: collagen I gene expression in the liver; test: Effect on liver fibrosis caused by non-alcoholic steatohepatitis (liver collagen I gene expression); format: in vivo; settings: LDL receptor deficient mouse, choline-deficient amino acid diet; oral once per day for 3 weeks; normalized by GAPDH; P<0.05 vs. control (FIG. 1)
# Description: The effect of the present compound on liver fibrosis caused by non-alcoholic steatohepatitis was verified by the following method.
# For efficacy evaluation of the antifibrotic action, 9-week-old, male, homo low-density lipoprotein receptor deficient mouse was used. The low-density lipoprotein receptor deficient mouse was purchased from Jackson Laboratories (Bar Harbor, Me., USA) and bred in Takeda Pharmaceutical Industry. To induce non-alcoholic steatohepatitis, a choline-deficient amino acid diet (A08111307, Research Diets, New Brunswick, N.J., USA) was fed.
# Before administration of the test compound (specifically, compound shown in Example 98), a choline-deficient amino acid diet was fed for one week, and the drug administration was started. […]
# After administration for 3 weeks, the mouse was sacrificed by euthanasia under isoflurane anesthesia under non-fasting and the liver was removed. […] Using RNeasy Mini Kit (Qiagen, Valencia, Calif., USA), the total RNA was purified, cDNA was prepared using High Capacity cDNA Reverse Transcription Kit (PN4368814, Applied Biosystems, Foster City, Calif., USA), and collagen I expression was quantified (collagen type I alpha 1, Part Number 4351370, Applied Biosystems) by the quantitative PCR method (TaqMan Gene Expression Master Mix, PN4369016, Applied Biosystems). […]
structure (smiles),measurement,setting,value
"CC(NC(N)=O)c1ccc2nc(-c3ccc(Oc4cccc(OCC5CC5)c4)nc3)oc2c1 (stereo not shown) [Example 98, 1-(1-(2-(6-(3-(cyclopropylmethoxy)phenoxy)pyridin-3-yl)-1,3-benzoxazol-6-yl)ethyl)urea]",T/C (%),"[1]; 0.3 mg/kg, 2 times per day",50.6%
same,T/C (%),"[1]; 1 mg/kg, 2 times per day",37.0%
same,T/C (%),"[1]; 3 mg/kg, 2 times per day",31.1%
same,T/C (%),"[1]; 10 mg/kg, 2 times per day",4.5%
same,T/C (%),"[1]; 20 mg/kg, 1 time per day",19.0%
same,T/C (%),"[1]; 30 mg/kg, 2 times per day",0.5%
same,expression level of collagen I gene in the liver of a non-alcoholic steatohepatitis model,[2],significantly suppressed
